Measured values reported in patent EP4667464A1 (Cyrus Therapeutics Inc., priority 2023, dated 2024).
Like-named read-outs stand apart in the source and are kept apart here.

Key:
SOS1 = biological target: T1, SOS1 (Homo sapiens, UniProt Q07889); assay: SOS-catalyzed nucleotide exchange assay (HTRF, SOS1-mediated GTP loading of KRAS G12D); type: biochemical
T1 construct: HIS-SOS1cat (160 nM; Cytoskeleton, US); His (N); purchased Cytoskeleton
T1 sequence (Q07889 564-1049 limits assumed): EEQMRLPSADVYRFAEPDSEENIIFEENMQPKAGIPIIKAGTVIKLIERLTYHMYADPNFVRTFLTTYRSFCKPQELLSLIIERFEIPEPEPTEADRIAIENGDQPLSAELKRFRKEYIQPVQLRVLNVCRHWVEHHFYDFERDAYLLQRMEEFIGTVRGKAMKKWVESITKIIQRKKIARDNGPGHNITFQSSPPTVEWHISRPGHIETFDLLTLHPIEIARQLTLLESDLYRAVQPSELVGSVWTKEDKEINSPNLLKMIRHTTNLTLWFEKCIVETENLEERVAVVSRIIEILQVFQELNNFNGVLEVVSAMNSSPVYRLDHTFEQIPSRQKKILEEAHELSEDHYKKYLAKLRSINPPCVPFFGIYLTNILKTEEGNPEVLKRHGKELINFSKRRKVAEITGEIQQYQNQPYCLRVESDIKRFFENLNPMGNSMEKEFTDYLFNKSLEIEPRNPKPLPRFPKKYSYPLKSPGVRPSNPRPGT
Protocol: SOS1 activity was measured by SOS1-mediated GTP loading quantification of KRAS^G12D. GTP loaded KRAS^G12D was detected by HTRF (Homogeneous Time Resolved Fluorescence) using anti-GST terbium (Cisbio, France) as a donor and a fluorescence GTP analogue (EDA-GTP-DY-647P1, [DY-647P1 labeled 2'/3'-O-(2-aminoethyl-carbamoyl)guanosine-5'-triphosphate (Jena bioscience, Germany)]) as an acceptor.
KRAS^G12D working solution was prepared by adding equal amounts of GST-KRAS^G12D (100 nM) and anti-GST-terbium (2 nM; Cisbio, France) to the assay buffer and culturing on ice for 10 minutes. […] Control solution was prepared by adding equal volumes of EDA-GTP-DY-647P1 and the assay buffer for normalization control to exclude GEF-independent GTP loading and background signals.
10 uL of the KRAS^G12D solution was added to each well and incubated for 30 minutes at room temperature while shaking. HTRF was measured using a Thermo Varioskan (excitation 334 nm, emission 665 nm). The IC50 of each inhibitor was analyzed using Graphad Prism.

KRAS G12C::SOS1 = biological target: T2, KRAS G12C::SOS1 (Homo sapiens, UniProt Q07889); assay: KRAS G12C::SOS1 protein-protein interaction (PPI) inhibition assay (HTRF); type: binding
T2 construct: purchased CISBIO 64KRASG12PEH
T2 sequence (Q07889 1-1333): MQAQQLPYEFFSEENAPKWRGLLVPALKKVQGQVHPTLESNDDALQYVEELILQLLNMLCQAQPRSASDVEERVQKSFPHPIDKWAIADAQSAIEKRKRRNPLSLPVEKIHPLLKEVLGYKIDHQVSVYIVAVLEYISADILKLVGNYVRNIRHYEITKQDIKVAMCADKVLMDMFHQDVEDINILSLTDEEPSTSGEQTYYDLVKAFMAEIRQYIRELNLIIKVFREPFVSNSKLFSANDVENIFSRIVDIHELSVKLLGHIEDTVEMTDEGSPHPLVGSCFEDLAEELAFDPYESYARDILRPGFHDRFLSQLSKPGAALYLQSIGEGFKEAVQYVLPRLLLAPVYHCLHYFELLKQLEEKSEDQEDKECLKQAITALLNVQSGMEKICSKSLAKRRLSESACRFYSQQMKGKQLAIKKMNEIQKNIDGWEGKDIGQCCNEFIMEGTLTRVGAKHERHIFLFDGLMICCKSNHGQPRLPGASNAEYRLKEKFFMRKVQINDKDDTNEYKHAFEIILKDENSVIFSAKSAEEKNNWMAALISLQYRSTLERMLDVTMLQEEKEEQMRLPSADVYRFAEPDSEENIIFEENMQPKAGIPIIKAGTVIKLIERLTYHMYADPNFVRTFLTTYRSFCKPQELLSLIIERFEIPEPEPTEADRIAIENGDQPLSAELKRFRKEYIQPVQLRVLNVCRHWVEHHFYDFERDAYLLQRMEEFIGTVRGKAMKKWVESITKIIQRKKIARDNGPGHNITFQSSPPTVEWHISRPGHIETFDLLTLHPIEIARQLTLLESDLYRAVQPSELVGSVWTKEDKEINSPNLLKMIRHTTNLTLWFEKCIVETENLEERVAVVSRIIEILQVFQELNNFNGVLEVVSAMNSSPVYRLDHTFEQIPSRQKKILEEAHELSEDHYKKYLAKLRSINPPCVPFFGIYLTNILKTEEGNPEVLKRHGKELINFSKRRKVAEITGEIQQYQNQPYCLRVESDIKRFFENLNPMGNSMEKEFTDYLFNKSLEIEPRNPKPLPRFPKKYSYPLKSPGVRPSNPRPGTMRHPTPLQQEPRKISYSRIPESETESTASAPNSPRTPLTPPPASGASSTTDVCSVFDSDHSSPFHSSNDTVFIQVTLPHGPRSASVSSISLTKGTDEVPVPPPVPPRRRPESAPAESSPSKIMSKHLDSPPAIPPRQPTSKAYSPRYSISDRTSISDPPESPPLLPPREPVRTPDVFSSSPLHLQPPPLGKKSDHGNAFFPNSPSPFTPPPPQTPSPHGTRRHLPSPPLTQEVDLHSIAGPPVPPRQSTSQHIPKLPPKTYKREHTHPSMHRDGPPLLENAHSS
Protocol: Protein-protein interaction between SOS1 and KRAS^G12c was detected using KRAS G12C/SOS1 binding kit from CISBIO (64KRASG12PEH, CISBIO, FRANCE) according to the manufacturer's assay method. Briefly, the maximum concentration of an inhibitor sample was set to be 3 µM, and the inhibitor sample was diluted 7 times by 1/3, and samples having a total of 8 concentrations were prepared. In HTRF (Homogeneous Time-Resolved Fluorescence) exclusive 96-well low-volume white plate (66PL96005, CISBIO, FRANCE), 2 µL of an inhibitor sample prepared for each concentration, 5 µL of a mixed solution of Tag1 labeled KRAS^G12c protein and GTP diluted with the dilution solution provided by the manufacturer, and 5 µL of Tag2 labeled SOS1 protein were mixed, and added with 8 µL of a diluted solution where anti-Tag1 KRAS^G12C XL665 (HTRF acceptor) labeled antibody and anti-Tag2 SOS1 Terbium cryptate (HTRF donor) labeled antibody were mixed in an equal ratio and cultured at room temperature for 2 h.

[1] = GST-KRAS G12D, HIS-SOS1cat, compound 128 pM to 10 µM; read-out: SOS-catalyzed nucleotide exchange assay
[2] = 8 concentrations from 3 µM, three replicates; read-out: KRAS G12C::SOS1 PPI

SMILES | IC50 (SOS1; [1]) [nM] | IC50 (KRAS G12C::SOS1; [2]) [nM] | IC50 (SOS1; read-out: SOS-catalyzed nucleotide exchange assay; GST-KRAS G12D, HIS-SOS1cat, compound 128 pM to 10 µM) [nM] | IC50 (KRAS G12C::SOS1; read-out: KRAS G12C::SOS1 PPI; 8 concentrations from 3 µM, three replicates) [nM]
COCC(F)(F)c1cccc([C@@H](C)NC(=O)c2ccc(=O)n(-c3cncc(-c4cnnn4C)c3)n2)c1F [Example 1-10, (R)-N-(1-(3-(1,1-difluoro-2-methoxyethyl)-2-fluorophenyl)ethyl)-1-(5-(1-methyl-1H-1,2,3-triazol-5-yl)pyridin-3-yl)-6-oxo-1,6-dihydropyridazine-3-carboxamide] | < 50 | 50 to 150 |  | 
C[C@@H](O)c1cc(C(=O)N[C@H](C)c2cccc(C(F)(F)F)c2F)nn(-c2cncc(-c3cnnn3C)c2)c1=O (single isomer, unassigned) [Example 9] | < 50 | 50 to 150 |  | 
C[C@@H](NC(=O)c1ccc(=O)n(-c2cncc(-c3cnnn3[C@@H]3CCNC3)c2)n1)c1cccc(C(F)(F)F)c1F [Example 6-9, N-{(R)-1-[2-fluoro-3-(trifluoromethyl)phenyl]ethyl}-6-oxo-1-(5-(1-((R)-pyrrolidin-3-yl)-1H-1,2,3-triazol-5-yl)pyridin-3-yl)-1,6-dihydropyridazine-3-carboxamide] | < 50 | < 50 |  | 
CCN1CC(n2nncc2-c2cncc(-n3nc(C(=O)N[C@H](C)c4cccc(C(F)(F)F)c4F)ccc3=O)c2)C1 [Example 20-9, (R)-1-(5-(1-(1-ethylazetidin-3-yl)-1H-1,2,3-triazol-5-yl)pyridin-3-yl)-N-(1-(2-fluoro-3-(trifluoromethyl)phenyl)ethyl)-6-oxo-1,6-dihydropyridazine-3-carboxamide] | < 50 | < 50 |  | 
Cc1c([C@@H](C)NC(=O)c2ccc(=O)n(-c3cncc(-c4cnnn4C)c3)n2)cc(N)cc1C(F)(F)F [Example 2-2, N-[(1R)-1-[5-amino-2-methyl-3-(trifluoromethyl)phenyl]ethyl]-1-[5-(3-methyltriazol-4-yl)-3-pyridyl]-6-oxo-pyridazine-3-carboxamide] | < 50 | < 50 |  | 
CCn1nncc1-c1cncc(-n2nc(C(=O)N[C@H](C)c3cccc(C(F)(F)CO)c3F)ccc2=O)c1 [Example 1-18, N-[(1R)-1-[3-(1,1-difluoro-2-hydroxy-ethyl)-2-fluoro-phenyl]ethyl]-1-[5-(3-ethyltriazol-4-yl)-3-pyridyl]-6-oxo-pyridazine-3-carboxamide] | < 50 | < 50 |  | 
CCc1cc(C(=O)N[C@H](C)c2cccc(C(F)(F)F)c2F)nn(-c2cncc(-c3cnnn3C)c2)c1=O [Example 1-66, N-{(R)-1-[2-fluoro-3-(trifluoromethyl)phenyl]ethyl}-5-ethyl-1-[5-(1-methyl-1H-1,2,3-triazol-5-yl)-3-pyridyl]-6-oxo-1,6-dihydropyridazine-3-carboxamide] | 50 to 150 | < 50 |  | 
C[C@@H](NC(=O)c1ccc(=O)n(-c2cncc(-c3cnnn3C3CCN(C)CC3)c2)n1)c1cccc(C(F)(F)F)c1F [Example 20-6, (R)-N-(1-(2-fluoro-3-(trifluoromethyl)phenyl)ethyl)-1-(5-(1-(1-methylpiperidin-4-yl)-1H-1,2,3-triazol-5-yl)pyridin-3-yl)-6-oxo-1,6-dihydropyridazine-3-carboxamide] | < 50 | < 50 |  | 
Cc1cc(C(=O)N[C@H](C)c2cccc(C(F)(F)COS(=O)(=O)c3ccccn3)c2F)nn(-c2cncc(-c3cnnn3C)c2)c1=O [Example 8, N-[(R)-1-{3-[1,1-difluoro-2-(2-pyridylsulfonyloxy)ethyl]-2-fluorophenyl}ethyl]-5-methyl-1-[5-(1-methyl-1H-1,2,3-triazol-5-yl)-3-pyridyl]-6-oxo-1,6-dihydropyridazine-3-carboxamide] | < 50 | < 50 |  | 
CC(C)n1nncc1-c1cncc(-n2nc(C(=O)N[C@H](C)c3cccc(C(F)(F)F)c3F)ccc2=O)c1 [Example 1-49, N-[(1R)-1-[2-fluoro-3-(trifluoromethyl)phenyl]ethyl]-1-[5-(3-isopropyltriazol-4-yl)-3-pyridyl]-6-oxo-pyridazine-3-carboxamide] |  |  | 50 to 150 | < 50
C[C@H](O)c1cc(C(=O)N[C@H](C)c2cccc(C(F)(F)F)c2F)nn(-c2cncc(-c3cnnn3C)c2)c1=O (single isomer, unassigned) [Example 10] | 50 to 150 | 50 to 150 |  | 
C[C@@H](NC(=O)c1ccc(=O)n(-c2cncc(-c3cnnn3C3CCC3)c2)n1)c1cccc(C(F)(F)CO)c1F [Example 1-55, 1-[5-(1-cyclobutyl-1H-1,2,3-triazol-5-yl)-3-pyridyl]-N-[(1R)-1-[3-(1,1-difluoro-2-hydroxy-ethyl)-2-fluoro-phenyl]ethyl]-6-oxo-pyridazine-3-carboxamide] | < 50 | < 50 |  | 
C[C@@H](NC(=O)c1ccc(=O)n(-c2cncc(-c3cnnn3C3CCN(S(C)(=O)=O)CC3)c2)n1)c1cccc(C(F)(F)F)c1F [Example 20-8, (R)-N-(1-(2-fluoro-3-(trifluoromethyl)phenyl)ethyl)-1-(5-(1-(1-(methylsulfonyl)piperidine-4-yl)-1H-1,2,3-triazol-5-yl)pyridin-3-yl)-6-oxo-1,6-dihydropyridazine-3-carboxamide] | < 50 | < 50 |  | 
[2H]C([2H])([2H])[C@@H](NC(=O)c1ccc(=O)n(-c2cncc(-c3cnnn3C3CC3)c2)n1)c1cccc(C(F)(F)CO)c1F [Example 1-60, 1-[5-(1-cyclopropyl-1H-1,2,3-triazol-5-yl)-3-pyridyl]-6-oxo-N-[(1R)-2,2,2-trideuterio-1-[3-(1,1-difluoro-2-hydroxy-ethyl)-2-fluoro-phenyl]ethyl]pyridazine-3-carboxamide] | < 50 | < 50 |  | 
